Patent US10555986B2, “Dietary supplement derived from natural prodcuts by hot melt extrusion (HME) processing” (INSTITUTO DE CAPACITACIÓN E INVESTIGACIÓN DEL PLÁS, priority 2017, dated 2020)

Legend:
[1] = after permanent coronary occlusion; background statement; cited from earlier work
[2] = relative to mannitol; background statement; cited from earlier work
[3] = background statement; cited from earlier work
[4] = release profile of (−)-Epicatechin, 2 hour in medium pH 1.2 and 2 more hours in medium pH 6.8, at 37° C.; type: physicochemical
Description: Releases for EXAMPLES I TO V.
FIG. 22 features release profile of (−)-Epicatechin at 2 hour in a medium with pH of 1.2 and 2 more hours in a medium with pH of 6.8, at 37° C. Releases for examples X to XIII with a particle size distribution between 250 μm and 425 μm (Mesh 40); and particle size distribution between 180 μm and 250 μm (Mesh 60).

[5] = release profile of (−)-Epicatechin in artificial saliva at pH 6.2 and 23° C.; type: physicochemical; conditions: artificial saliva pH 6.2, 23° C.
Description: FIG. 20 describes the release profile of (−)-Epicatechin in artificial saliva at pH 6.2 and 23° C. for examples X to XIII with a particle size distribution between 250 μm and 425 μm (Mesh 40).
FIG. 21 illustrates the release profile of (−)-Epicatechin in artificial saliva at pH 6.2 and 23° C. for EXAMPLE X to XIII with a particle size distribution between 180 μm and 250 μm (Mesh 60).

## Oc1cc(O)c2c(c1)O[C@H](c1ccc(O)c(O)c1)[C@H](O)C2 [EPICATECHIN AT 90%, (−)-Epicatechin (2R,3R)]
[1]
  reduction in scar (infarct) size: approximately 33%
[2]
  quenches OH more effectively than mannitol: 100 times
[3]
  oral bioavailability: less than 5%
[4]; 1 h, medium pH 1.2, 37° C.
  % release: 98.59%
[4]; 1 h, medium pH 1.2, 37° C., Table 13
  release profile percentages: 98.59%
[4]; 1 h, medium pH 1.2, 37° C., Table 14
  release profile percentages: 98.59%
[4]; 2 h, medium pH 1.2, 37° C.
  % release: 99.94%
[4]; 2 h, medium pH 1.2, 37° C., Table 13
  release profile percentages: 99.94%
[4]; 2 h, medium pH 1.2, 37° C., Table 14
  release profile percentages: 99.94%
[4]; 3 h, 2 h pH 1.2 then medium pH 6.8, 37° C.
  % release: 100.22%
[4]; 3 h, 2 h pH 1.2 then pH 6.8, 37° C., Table 13
  release profile percentages: 100.22%
[4]; 3 h, 2 h pH 1.2 then pH 6.8, 37° C., Table 14
  release profile percentages: 100.22%
[4]; 4 h, 2 h pH 1.2 then medium pH 6.8, 37° C.
  % release: 100.84%
[4]; 4 h, 2 h pH 1.2 then pH 6.8, 37° C., Table 13
  release profile percentages: 100.84%
[4]; 4 h, 2 h pH 1.2 then pH 6.8, 37° C., Table 14
  release profile percentages: 100.84%
[5]; 30 s
  % release: 75.30%
[5]; 30 s, Table 13
  release profile percentages: 75.30%
[5]; 30 s, Table 14
  release profile percentages: 75.30%
[5]; 60 s
  % release: 88.70%
[5]; 60 s, Table 13
  release profile percentages: 88.70%
[5]; 60 s, Table 14
  release profile percentages: 88.70%
[5]; 120 s
  % release: 93.43%
[5]; 120 s, Table 13
  release profile percentages: 93.43%
[5]; 120 s, Table 14
  release profile percentages: 93.43%
